Test results as given in ChEMBL document CHEMBL1156953, “Novel pyrrolyl 2-aminopyridines as potent and selective human beta-secretase (BACE1) inhibitors” (Bioorg Med Chem Lett, 2010).

Assay: Dissociation constant, pKa of the compound
Type: physicochemical

pKa, 6.86:
N#CCCCOc1ccc(-c2ccc(-c3ccccc3Cl)n2Cc2cccc(N)n2)cc1
CCCCCOc1ccc(-c2ccc(-c3ccccc3Cl)n2Cc2ccc(NCCO)c(N)n2)cc1
CCCCCOc1ccc(-c2ccc(-c3ccccc3Cl)n2Cc2ccc(NCCCO)c(N)n2)cc1
CCCOc1ccc(-c2ccc(-c3ccccc3Cl)n2Cc2cccc(N)n2)cc1
CCCCOc1ccc(-c2ccc(-c3ccccc3Cl)n2Cc2cccc(N)n2)cc1
CCNC(=O)c1ccc(-c2ccc(-c3ccccc3)n2Cc2cccc(N)n2)cc1
CCCNC(=O)c1ccc(-c2ccc(-c3ccccc3)n2Cc2cccc(N)n2)cc1
CCCCNC(=O)c1ccc(-c2ccc(-c3ccccc3)n2Cc2cccc(N)n2)cc1
Nc1nc(Cn2c(-c3ccc(Oc4cncnc4)cc3)ccc2-c2ccccc2Cl)ccc1OCCO
Nc1nc(Cn2c(-c3ccc(Oc4cncnc4)cc3)ccc2-c2ccccc2Cl)ccc1NCCO
Nc1cccc(Cn2c(-c3ccc(Oc4ccncc4)cc3)ccc2-c2ccccc2Cl)n1
Nc1cccc(Cn2c(-c3ccc(Oc4cccnc4)cc3)ccc2-c2ccccc2Cl)n1
Nc1cccc(Cn2c(-c3ccc(Oc4ccccc4)cc3)ccc2-c2ccccc2Cl)n1
Nc1cccc(Cn2c(-c3ccc(Oc4ccccn4)cc3)ccc2-c2ccccc2Cl)n1
Nc1cccc(Cn2c(-c3ccc(Oc4cncnc4)cc3)ccc2-c2ccccc2Cl)n1
Nc1cccc(Cn2c(-c3ccc(Oc4cnccn4)cc3)ccc2-c2ccccc2Cl)n1
CCCCCCOc1ccc(-c2ccc(-c3ccccc3Cl)n2Cc2cccc(N)n2)cc1
C=CCNC(=O)c1ccc(-c2ccc(-c3ccccc3)n2Cc2cccc(N)n2)cc1
CC(C)NC(=O)c1ccc(-c2ccc(-c3ccccc3)n2Cc2cccc(N)n2)cc1
Nc1cccc(Cn2c(-c3ccccc3)ccc2-c2ccccc2)n1
Nc1cccc(Cn2c(-c3ccc(Oc4cccnn4)cc3)ccc2-c2ccccc2Cl)n1
Nc1cccc(Cn2c(-c3ccc(Oc4cccs4)cc3)ccc2-c2ccccc2Cl)n1
Nc1cccc(Cn2c(-c3ccccc3)ccc2-c2ccc(C(=O)NC3CC3)cc2)n1
Nc1cccc(Cn2c(-c3ccccc3)ccc2-c2ccc(C(=O)NC3CCC3)cc2)n1
COc1ccc(-c2ccc(-c3ccccc3Cl)n2Cc2cccc(N)n2)cc1
CCCCCOc1ccc(-c2ccc(-c3ccccc3Cl)n2Cc2cccc(N)n2)cc1
Nc1cccc(Cn2c(-c3ccc(Nc4cncnc4)cc3)ccc2-c2ccccc2Cl)n1
CCCCCOc1ccc(-c2ccc(-c3ccccc3Cl)n2Cc2ccc(OCCO)c(N)n2)cc1
CCCCCOc1ccc(-c2ccc(-c3ccccc3Cl)n2Cc2ccc(OCCCO)c(N)n2)cc1
